From US20250302832A1, “PYRAZINE DERIVATIVES AND USES THEREOF” (FOGHORN THERAPEUTICS INC., priority 2022, published 2025)

Key:
[1] = biological target: T1, HiBit-BRM fusion protein (Homo sapiens, UniProt P51531); assay: HiBiT-BRM cell-based degradation assay (Nano-Glo HiBiT lytic detection, 24 h); conditions: HeLa cell line expressing HiBiT-BRM; for DC50: read-out: BRM HiBit Degradation IC50
T1 construct: expressed in transfected cells
Outline: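 Luminescence from LgBiT complementation quantified remaining HiBiT-BRM in stably expressing HeLa cells after 24 h compound exposure (top final dose 30 μM, 3-fold, 10 points, duplicate). Degradation expressed as percent relative to DMSO and a 2 μM reference degrader.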

[2] = biological target: T2, HiBit-BRG1 fusion protein (Homo sapiens, UniProt P51532); assay: HiBiT-BRG1 cell-based degradation assay (Nano-Glo HiBiT lytic detection, 24 h); conditions: HeLa cell line expressing HiBit-BRG1 and LgBit; for Dmax: read-out: BRG1 HiBit Degradation Maximum (%); for DC50: read-out: BRMG1 HiBit Degradation IC50
T2 construct: expressed in transfected cells
T2 sequence (P51532 whole entry, the tested form may be a part): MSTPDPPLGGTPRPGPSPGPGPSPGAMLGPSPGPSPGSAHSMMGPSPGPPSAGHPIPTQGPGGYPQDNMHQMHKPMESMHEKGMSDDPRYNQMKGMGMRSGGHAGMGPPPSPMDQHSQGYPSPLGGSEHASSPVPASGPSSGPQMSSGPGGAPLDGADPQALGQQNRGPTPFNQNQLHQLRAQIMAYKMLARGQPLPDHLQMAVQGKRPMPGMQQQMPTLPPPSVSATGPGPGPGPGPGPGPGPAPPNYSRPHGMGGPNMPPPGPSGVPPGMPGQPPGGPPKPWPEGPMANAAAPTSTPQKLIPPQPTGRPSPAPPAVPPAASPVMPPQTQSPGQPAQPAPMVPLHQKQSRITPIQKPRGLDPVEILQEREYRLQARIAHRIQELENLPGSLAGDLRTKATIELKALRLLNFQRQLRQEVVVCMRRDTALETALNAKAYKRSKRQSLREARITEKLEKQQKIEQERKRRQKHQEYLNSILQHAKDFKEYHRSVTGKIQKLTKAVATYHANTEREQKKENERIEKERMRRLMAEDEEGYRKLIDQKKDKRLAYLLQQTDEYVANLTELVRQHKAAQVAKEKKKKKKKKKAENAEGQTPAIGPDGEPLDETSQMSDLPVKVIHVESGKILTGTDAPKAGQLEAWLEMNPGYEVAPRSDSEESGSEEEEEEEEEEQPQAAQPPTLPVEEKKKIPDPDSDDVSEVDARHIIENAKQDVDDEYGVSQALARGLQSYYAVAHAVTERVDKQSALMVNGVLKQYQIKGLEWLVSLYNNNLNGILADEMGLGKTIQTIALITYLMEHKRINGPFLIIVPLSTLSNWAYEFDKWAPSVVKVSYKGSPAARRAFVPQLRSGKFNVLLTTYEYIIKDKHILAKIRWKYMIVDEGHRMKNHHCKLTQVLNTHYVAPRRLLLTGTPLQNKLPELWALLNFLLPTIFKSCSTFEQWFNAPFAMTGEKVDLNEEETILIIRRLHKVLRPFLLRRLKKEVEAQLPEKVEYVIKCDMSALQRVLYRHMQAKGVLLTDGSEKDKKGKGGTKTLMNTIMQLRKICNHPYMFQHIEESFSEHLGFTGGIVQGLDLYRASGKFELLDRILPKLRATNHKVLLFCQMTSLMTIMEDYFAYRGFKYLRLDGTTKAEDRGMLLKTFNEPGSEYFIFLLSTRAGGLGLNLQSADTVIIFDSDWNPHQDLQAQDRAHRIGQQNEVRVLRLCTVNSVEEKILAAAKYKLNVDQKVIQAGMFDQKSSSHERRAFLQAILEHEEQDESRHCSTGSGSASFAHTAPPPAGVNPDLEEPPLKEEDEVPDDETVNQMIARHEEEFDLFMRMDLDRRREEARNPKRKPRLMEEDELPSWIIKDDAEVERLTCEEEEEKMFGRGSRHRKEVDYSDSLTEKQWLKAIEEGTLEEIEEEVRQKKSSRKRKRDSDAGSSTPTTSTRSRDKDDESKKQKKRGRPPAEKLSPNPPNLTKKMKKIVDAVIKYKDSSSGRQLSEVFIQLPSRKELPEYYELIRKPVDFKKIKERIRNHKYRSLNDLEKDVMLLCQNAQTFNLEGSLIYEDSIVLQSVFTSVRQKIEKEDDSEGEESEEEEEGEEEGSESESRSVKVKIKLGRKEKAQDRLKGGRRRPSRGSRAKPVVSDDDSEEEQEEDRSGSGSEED
Outline: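 Luminescence from HiBiT/LgBiT complementation after lytic detection reagent was read following 24 h compound exposure of HeLa cells stably carrying HiBiT-BRG1 plus LgBiT (5000 cells/well). Signal scaled to % degradation using DMSO-treated cells as 0% and cells given 2 μM known BRM/BRG1 degrader as 100%.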

T1 sequence (P51531 whole entry, the tested form may be a part): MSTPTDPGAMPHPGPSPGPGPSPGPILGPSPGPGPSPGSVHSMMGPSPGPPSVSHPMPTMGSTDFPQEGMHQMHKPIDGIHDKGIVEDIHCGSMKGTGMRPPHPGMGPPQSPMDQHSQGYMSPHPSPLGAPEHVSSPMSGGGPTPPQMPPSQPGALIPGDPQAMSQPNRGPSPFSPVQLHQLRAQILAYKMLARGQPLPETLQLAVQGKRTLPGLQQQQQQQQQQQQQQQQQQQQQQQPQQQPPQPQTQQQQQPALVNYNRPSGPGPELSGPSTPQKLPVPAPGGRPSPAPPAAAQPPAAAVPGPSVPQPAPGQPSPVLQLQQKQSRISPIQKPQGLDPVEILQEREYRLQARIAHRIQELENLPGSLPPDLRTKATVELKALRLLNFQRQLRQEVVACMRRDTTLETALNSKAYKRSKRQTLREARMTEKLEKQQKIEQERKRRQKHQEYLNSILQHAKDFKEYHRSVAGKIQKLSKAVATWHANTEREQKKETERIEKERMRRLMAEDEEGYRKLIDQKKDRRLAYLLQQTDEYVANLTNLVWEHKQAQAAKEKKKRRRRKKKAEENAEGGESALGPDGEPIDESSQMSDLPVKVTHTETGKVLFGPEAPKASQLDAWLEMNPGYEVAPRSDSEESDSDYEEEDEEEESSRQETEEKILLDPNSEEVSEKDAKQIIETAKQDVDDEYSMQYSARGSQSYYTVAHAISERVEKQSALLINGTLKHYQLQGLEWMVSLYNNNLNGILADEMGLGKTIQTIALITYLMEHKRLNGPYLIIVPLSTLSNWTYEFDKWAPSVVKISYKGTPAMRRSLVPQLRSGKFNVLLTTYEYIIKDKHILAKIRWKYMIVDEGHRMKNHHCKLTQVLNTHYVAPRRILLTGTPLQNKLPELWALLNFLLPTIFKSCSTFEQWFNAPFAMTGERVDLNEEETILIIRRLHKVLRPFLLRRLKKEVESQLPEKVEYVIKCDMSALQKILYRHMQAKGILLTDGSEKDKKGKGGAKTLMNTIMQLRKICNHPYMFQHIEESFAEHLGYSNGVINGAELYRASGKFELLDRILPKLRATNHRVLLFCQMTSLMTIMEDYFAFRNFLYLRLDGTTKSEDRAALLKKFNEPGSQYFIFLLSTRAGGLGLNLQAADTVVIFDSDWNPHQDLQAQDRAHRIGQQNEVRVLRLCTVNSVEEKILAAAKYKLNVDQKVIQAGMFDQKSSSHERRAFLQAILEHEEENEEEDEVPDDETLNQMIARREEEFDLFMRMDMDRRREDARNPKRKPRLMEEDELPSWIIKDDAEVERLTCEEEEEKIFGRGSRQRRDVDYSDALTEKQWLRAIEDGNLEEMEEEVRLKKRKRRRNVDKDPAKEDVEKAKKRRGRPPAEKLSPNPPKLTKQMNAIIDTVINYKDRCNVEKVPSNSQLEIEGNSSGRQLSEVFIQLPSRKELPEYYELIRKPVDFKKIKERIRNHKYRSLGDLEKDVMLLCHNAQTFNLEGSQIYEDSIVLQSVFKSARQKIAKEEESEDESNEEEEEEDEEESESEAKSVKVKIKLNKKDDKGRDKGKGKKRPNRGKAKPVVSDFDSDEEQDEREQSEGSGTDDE

DC50 [1] | Dmax [2] | DC50 [2] | SMILES | BRM HiBit Degradation Maximum (%) [1]
> 10 nM | > 50% | > 10 nM | Cc1ncsc1-c1ccc([C@H](C)NC(=O)[C@@H]2C[C@@H](O)CN2C(=O)[C@@H](c2cc(-c3cnc(N4CC[C@H](c5cc6nnc(-c7cc(F)cc(Cl)c7O)cc6n5C5CC5)C4)nc3)no2)C(C)C)cc1 [Compound 73, (2S,4R)-1-((R)-2-(3-(2-((S)-3-(3-(3-chloro-5-fluoro-2-hydroxyphenyl)-5-cyclopropyl-5H-pyrrolo[3,2-c]pyridazin-6-yl)pyrrolidin-1-yl)pyrimidin-5-yl)isoxazol-5-yl)-3-methylbutanoyl)-4-hydroxy-N-((S)-1-(4-(4-methylthiazol-5-yl)phenyl)ethyl)pyrrolidine-2-carboxamide] | B (“B” indicates maximum degradation ≥50%)
< 10 nM | > 50% | < 10 nM | Cc1ncsc1-c1ccc([C@H](C)NC(=O)[C@@H]2C[C@@H](O)CN2C(=O)[C@H](C(C)C)n2cc(-c3cnc(N4CC[C@H](c5cc6nnc(-c7ccccc7O)cc6n5C5CC5)C4)nc3)nn2)cc1 [Compound 74, (2S,4R)-1-((S)-2-(4-(2-((S)-3-(5-cyclopropyl-3-(2-hydroxyphenyl)-5H-pyrrolo[3,2-c]pyridazin-6-yl)pyrrolidin-1-yl)pyrimidin-5-yl)-1H-1,2,3-triazol-1-yl)-3-methylbutanoyl)-4-hydroxy-N—((S)-1-(4-(4-methylthiazol-5-yl)phenyl)ethyl)pyrrolidine-2-carboxamide] | A (“A” indicates maximum degradation ≥75%)
> 10 nM | < 50% |  | Cc1ncsc1-c1ccc([C@H](C)NC(=O)[C@@H]2C[C@@H](O)CN2C(=O)[C@@H](C(C)C)n2cc(-c3cnc(N4CC[C@H](c5cc6nnc(-c7ccccc7O)cc6n5C5CC5)C4)nc3)nn2)cc1 [Compound 75, (2S,4R)-1-((R)-2-(4-(2-((S)-3-(5-cyclopropyl-3-(2-hydroxyphenyl)-5H-pyrrolo[3,2-c]pyridazin-6-yl)pyrrolidin-1-yl)pyrimidin-5-yl)-1H-1,2,3-triazol-1-yl)-3-methylbutanoyl)-4-hydroxy-N—((S)-1-(4-(4-methylthiazol-5-yl)phenyl)ethyl)pyrrolidine-2-carboxamide] | A (“A” indicates maximum degradation ≥75%)

The remaining lines, values behind:

SMILES | DC50 [1] | Dmax [2] | DC50 [2] | BRM HiBit Degradation Maximum (%) [1]
Cc1ncsc1-c1ccc([C@H](C)NC(=O)[C@@H]2C[C@@H](O)CN2C(=O)[C@H](C(C)C)n2cc(-c3cnc(N4CC[C@@H](c5cc6nnc(-c7ccccc7O)cc6n5C5CC5)C4)nc3)nn2)cc1 [Compound 71, (2S,4R)-1-((S)-2-(4-(2-((R)-3-(5-cyclopropyl-3-(2-hydroxyphenyl)-5H-pyrrolo[3,2-c]pyridazin-6-yl)pyrrolidin-1-yl)pyrimidin-5-yl)-1H-1,2,3-triazol-1-yl)-3-methylbutanoyl)-4-hydroxy-N-((S)-1-(4-(4-methylthiazol-5-yl)phenyl)ethyl)pyrrolidine-2-carboxamide] | < 10 nM | > 75% | < 10 nM | A (“A” indicates maximum degradation ≥75%)
Cc1ncsc1-c1ccc([C@H](C)NC(=O)[C@@H]2C[C@@H](O)CN2C(=O)[C@@H](C(C)C)n2cc(-c3cnc(N4CC[C@@H](c5cc6nnc(-c7ccccc7O)cc6n5C5CC5)C4)nc3)nn2)cc1 [Compound 72, (2S,4R)-1-((R)-2-(4-(2-((R)-3-(5-cyclopropyl-3-(2-hydroxyphenyl)-5H-pyrrolo[3,2-c]pyridazin-6-yl)pyrrolidin-1-yl)pyrimidin-5-yl)-1H-1,2,3-triazol-1-yl)-3-methylbutanoyl)-4-hydroxy-N-((S)-1-(4-(4-methylthiazol-5-yl)phenyl)ethyl)pyrrolidine-2-carboxamide] | < 10 nM | < 50% |  | A (“A” indicates maximum degradation ≥75%)
